# Target: T1, Taspase 1/Importin α interaction (Homo sapiens, UniProt Q9H6P5, D233A/T234A)
# T1 construct: with full-length Taspase 1 in the recombinant pull-down assay
# T1 sequence (Q9H6P5 1-420 D233A/T234A): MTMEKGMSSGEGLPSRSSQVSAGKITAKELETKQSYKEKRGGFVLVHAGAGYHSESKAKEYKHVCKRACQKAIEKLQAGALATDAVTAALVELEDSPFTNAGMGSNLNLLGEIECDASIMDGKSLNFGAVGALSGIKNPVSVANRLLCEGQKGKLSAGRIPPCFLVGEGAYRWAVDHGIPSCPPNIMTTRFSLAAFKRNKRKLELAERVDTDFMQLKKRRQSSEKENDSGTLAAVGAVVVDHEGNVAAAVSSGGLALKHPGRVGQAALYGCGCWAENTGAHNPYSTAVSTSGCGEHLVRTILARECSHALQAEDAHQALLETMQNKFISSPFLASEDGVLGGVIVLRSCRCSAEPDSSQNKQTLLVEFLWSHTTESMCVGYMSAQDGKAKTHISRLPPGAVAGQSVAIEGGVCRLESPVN
# Test: Recombinant pull-down assay, GST-Importin α bait and Taspase 1-His prey
# Format: biochemical
# Details: percentage of the PPI of Importin α with full-length Taspase 1, ligand conc. 25 µM, n = 3
# Experimental: Pull-down assay: recombinant pull-down assays were performed as described.[9,10] For details on the assay workflow, see SI (Fig. S6).
# Pull-down assays were conducted with 100 μM of TWAAP3 in either its Z or E isomer form or left untreated (un.), omitting the ligand. […] To achieve the respective Z or E isomer, TWAAP3 was irradiated with UV light (365 nm) or green light (520 nm) prior to incubation. All samples contained 3% DMSO during ligand incubation. Negative controls included samples lacking either GST-Importin α (-Iα) or Taspase 1 (-T). *, p < 0.05, t-test. Composed with https://BioRender.com.
# Figure S6. Controls for pull-down assays with TWAAP constructs. A. Schematic assay
# representation: GST -Importin α was immobilized on a glutathione -coated Sepharose matrix in a spin
# column. After GST binding, Taspase 1-His pre-incubated with tweezer constructs was added. […]
compound,measurement,setting,value
Cc1nn(-c2ccc(-c3cn(CCOP(=O)(O)Oc4c5c(c(OP(=O)(O)O)c6c4C4CC6c6cc7c(cc64)C4CC7c6ccccc64)C4CC5c5cc6c(cc54)C4CC6c5ccccc54)nn3)cc2)c(C)c1N=Nc1ccc(-c2ccc(-c3cn(CCOP(=O)(O)Oc4c5c(c(OP(=O)(O)O)c6c4C4CC6c6cc7c(cc64)C4CC7c6ccccc64)C4CC5c5cc6c(cc54)C4CC6c5ccccc54)nn3)cc2)cc1 [TWAAP3],"PPI TW (pull-down, full-length protein)",E isomer,90%
same,"PPI TW (pull-down, full-length protein)",Z isomer,60%

# From article PMC12419465, “Photoresponsive molecular tweezers modulate Taspase 1 activity” (RSC Chemical Biology, 2025)
